Experimental data from patent US5439902A, “14α, 16α-ethanoand 14α, 16α-etheno-estratrienes” (Schering Aktiengesellschaft, priority 1991, dated 1995).

Columns and labels:
Estrogen-receptor = Estrogen-receptor test (KF); type: binding; conditions: estradiol = 1.0
vaginal epithelium = test: Allen-Doisy test (vaginal smears, threshold at which 50% of the animals reach stage 3); type: in vivo, ovariectomized rats; conditions: for Allen-Doisy Test p.o. [ED50] / Allen-Doisy Test s.c. [ED50]: ovariectomized rats, one-time administration d1, smears d3-d5
Description: In the Allen-Doisy test, an evaluation of vaginal smears in ovariectomized rats is performed on days 3-5 (d3-d5) after the one-time administration on day 1 (d1) of the test substance. The following cycle stages are distinguished:
1=diestrus (leukocytes and nucleated epithelial cells),
2=proestrus (nucleated epithelial cells),
3=estrus (denucleated horny plaques),
4=metestrus (denucleated horny plaques, leukocytes, epithelial cells).
After oral or subcutaneous administration, estrogenically active substances result in the proliferation of the vaginal epithelium and the hornification of superficial cell layers. As a threshold value, that amount of an estrogen is indicated in which 50% of the animals reach stage 3. Further, estrogens cause an increase of the uterus weight.

SMILES	Estrogen-receptor test (KF) (Estrogen-receptor)	Allen-Doisy Test p.o. [ED50] (vaginal epithelium)	threshold value (50% of the animals reach stage 3) (vaginal epithelium; s.c., rat, FIG. 1, threshold already exceeded after only 0.3 μg) [µg]	Allen-Doisy Test s.c. [ED50] (vaginal epithelium; s.c.)
C[C@]12CC[C@@H]3c4ccc(O)cc4CC[C@H]3[C@@]13C=C[C@H](C3)[C@H]2O [14α,16α-etheno-estra-1,3,5(10)-triene-3,17α-diol]	1.5			
C[C@]12CC[C@@H]3c4ccc(O)cc4CC[C@H]3[C@@H]1CC[C@H]2O [17α-Estradiol, reference compound]	46.0			
C[C@]12CC[C@@H]3c4ccc(O)cc4CC[C@H]3[C@@]13CC[C@H](C3)[C@H]2O [14α,16α-ethano-estra-1,3,5(10)-triene-3,17α-diol]	0.5	3-10 μg/animal/day	< 0.3	0.1-0.3 μg/animal/day
C[C@]12CC[C@@H]3c4ccc(O)cc4CC[C@H]3[C@@H]1CC[C@@H]2O [Estradiol, reference compound]	1.0			
C[C@]12CC[C@@H]3c4ccc(O)cc4CC[C@H]3[C@@]13CC[C@H](C3)[C@@H]2O [14α,16α-ethano-estra-1,3,5(10)-triene-3,17β-diol]	1.0	1.0 μg/animal/day		0.1-0.3 μg/animal/day
